A melting point compilation (Tetko et al.; mined from patent text by program, amines drawn as free bases though some values may be those of a salt)
Residues, ends and D or L forms follow the SMILES beside them. *: point of attachment. Boc = CC(C)(C)OC(=O)*; NHNH2 = NN*

melting point [°C] | SMILES
177 to 179 | COC(=O)c1c(C(N)=O)[nH]c(-c2ccccc2)c1N
120 | Cc1nc(C(O)(Cn2cncn2)c2ccc(F)cc2)cs1 (configuration not stated)
174 | Cc1sc(-c2ccc(-c3ccccc3)cc2)nc1CCOc1ccc(OC(C)(C)C(=O)O)cc1
228 to 233 | CC(C)c1c(C(=O)Nc2ccccc2)c(-c2ccccc2)c(-c2ccc(F)cc2)n1CCCC(O)C(O)CC(=O)N(c1ccccc1)c1ccccc1 (configuration not stated)
62 to 64 | FC(F)(F)c1cc(Br)c2cccc(Cl)c2n1
> 300 | Nc1cc(C(=O)O)ccc1-c1nnc(-c2ccc(C(F)(F)F)cc2)o1
220 to 223 | CC(C)[C@H](NC(=O)OCc1ccccn1)C(=O)N[C@@H](Cc1ccccc1)[C@@H](O)[C@H](O)[C@H](Cc1ccccc1)NC(=O)[C@@H](NC(=O)OCc1ccccn1)C(C)C
176 to 177 | CNC(=O)c1ccccc1Nc1nc(Nc2ccc3c(c2)CN(CCOC)CCS3)ncc1Cl
49 to 51 | COc1nc(N2CCN(C(=O)c3ccccc3C(F)(F)F)CC2)ccc1C(=O)NCCC1CC1
94 to 96 | ON=C(Cc1ccccc1)c1ccccc1
116 to 117 | O=C(O)COc1ccc(SCc2ccc(OCc3ccc(F)c(C(F)(F)F)c3)cc2)c2c1CCC2
133 | CC(C(=O)O)c1cccc(C(=O)c2cc3sccc3s2)c1 (configuration not stated)
112 to 113 | CC1=NN(C(=O)NS(=O)(=O)N(C)S(=O)(=O)N(C)C)C(c2cccs2)C1 (configuration not stated)
57 | COC1=C(OC)C(=O)C(CCCCCCCCCCCO)=C(C)C1=O
106 to 110 | Fc1cc(Cl)ccc1-n1nc2c(c1Br)CCC2
62 to 63 | CNC(=S)NCCSCc1nscc1Br
> 300 | N#Cc1ccc(-c2cn3c(C(F)(F)F)cccc3n2)cc1
83 to 84 | CCOC(=O)CNc1ccc2ccccc2c1
128 to 130 | NCCCCc1cccc(C2=NNC(=O)CC2)c1
189 to 190 | O=C1CCC2=C(CCc3cccc(Br)c32)N1
60.5 to 61 | CCCCCCCC(=O)OC1CC(=O)NC1=O (configuration not stated)
74 to 75 | O=S(=O)(Nc1cccc(CCOCc2ccc(-c3ccc(Cl)c(Cl)c3)cc2)c1)C(F)(F)F
134 to 136 | COC(=O)c1ccc(C(=O)O)cc1C

melting point [°C] | SMILES
52 | CN(C)CCCn1c(-c2ccccc2)cc2ccccc21
170 to 171 | CCn1nc(OCC(=O)c2ccc(F)cc2)c(-c2ccc(F)cc2)c1-c1ccc(OC)cc1
307 to 308 | O=C(NCc1ccc(Cl)cc1)c1nnc2ccc(I)cc2c1O
112 to 113 | CC1(C)OC(CS(=O)(=O)c2ccc(Cl)cc2)=CC1=O
101 to 103 | CN(C)C(=O)N(C)c1nnc(S(=O)(=O)N(C)C)s1
112 to 114 | COC(=O)c1cc(C(C)OC)c(C(F)(F)F)cc1N (configuration not stated)
130 to 132 | COc1ccc(N2CCN(c3ccc(NC(=O)Oc4ccccc4)nc3)CC2)cc1
161 | CCOC(=O)Cc1c(Cl)cnc2c(NC(=O)c3c(Cl)cccc3Cl)cccc12
255 to 256 | COc1ccc(C2(C)C(=O)Nc3cc(Cl)cc(Cl)c3C2=O)cc1[N+](=O)[O-] (configuration not stated)
167 to 169 | O=C1C[C@@H](Nc2ncnc3c2ncn3[C@@H]2O[C@H](CO)[C@@H](O)[C@H]2O)C(=O)N1
191 to 192 | CC(=O)C1=C(O)c2ccc3ccccc3c2S(=O)(=O)N1
204 to 205 | COc1cc2c(c3c1OC(C)(C)C3)C(c1cccc(Nc3cccnc3)c1)=NC(C)(C)C2
153 to 155 | CN1CC(CCCl)Oc2ccc([N+](=O)[O-])cc2C1=S (configuration not stated)
198 to 200 | CC(C)(C)OC(=O)N[C@H]1CCc2cc(-c3ccccc3)ccc2NC1=O
247 to 251 | COC(=O)c1ccc(NC(=O)c2ccc(-c3ccccc3)cc2)cc1
175 to 177 | CC1(C)C(=O)Nc2cc3[nH]c(C(F)(F)F)nc3cc21
180 to 182 | Nc1ccc(CS(=O)(=O)Nc2ccccc2)cc1
> 280 | CCOC(=O)c1cnc2cc(Br)c(F)cc2c1O
146 to 148 | O=S(CCCc1nc(-c2ccc(F)cc2)c(-c2ccncc2)[nH]1)c1ccccc1 (configuration not stated)
231 to 234 | O=C(C=Cc1cc(O)c(O)c([N+](=O)[O-])c1)c1ccccc1O
68 to 70 | C#CCOc1cc(-c2ncc(C(F)(F)F)cc2F)c(F)cc1Cl
80 to 82 | CCCCOC(=O)C=Cc1c(-c2ccccc2)nn2ccccc12
132 to 133 | CCOC(=O)c1c(CCBr)nc2cc(OC)c(OC)cc2c1-c1ccc(OC)c(OC)c1

melting point [°C] | SMILES
226 to 228 | O=C(CN1CCSCC1)N1CCN(Cc2ccc3c(c2)-c2[nH]nc(-c4ccsc4)c2C3)CC1
228 | O=C(NC(Cc1ccc(OCc2ccccc2)cc1)C(=O)O)c1cn2cc(-c3ccccc3Cl)ccc2n1 (configuration not stated)
168 to 170 | Cc1noc(NS(=O)(=O)c2ccsc2C(N)=O)c1Br
140 | CC(=O)N1c2ccc(-c3ccc(C#N)cc3)cc2C(Nc2ccc(F)cc2)CC1C (configuration not stated)
88 to 90 | COc1ccc(OCC(=O)c2ccccc2)c([N+](=O)[O-])c1
174 to 176 | CC(C)CC(NC(=O)OC(C)(C)C)C(=O)NCC(=O)NCC(=O)NC(C)C(=O)NCC(=O)NN (configuration not stated) (Boc-LGGAG-NHNH2; configuration not given here)
236 to 238 | O=C(Nc1ccc2nc(CN3CCOCC3)ccc2c1)c1ccc(-c2ccc(Cl)cc2)cc1
145 to 146 | O=C(O)COc1ccc(-c2ccccc2OC2OC(CO)C(O)C(O)C2O)cc1 (configuration not stated)
132 to 133 | CC(=O)NCCc1ccc(CCC(=O)O)cc1
174 to 177 | Cc1noc(C)c1-c1cn(Cc2ccccc2)c(=O)c2cnccc12
200 to 203 | Cc1cc2c(c3ccc(=O)[nH]c13)OC(COS(C)(=O)=O)C2 (configuration not stated)
222 | C[C@H]1CCC[C@@](O)(CNC(=O)c2c(Cl)ccc3nc(N4CC[C@H](O)C4)ccc23)C1
> 320 | O=C1NC(=O)c2c1cc1ccc3c(c1c2-c1ccc2c(c1)OCO2)OCC3
131 to 132 | Clc1ccc(-c2cnccn2)c(Cl)c1
122 to 124 | CCN(CC)c1ccc2c(c1)CC(=O)N2
159 to 160 | NC(=O)c1cccc(-c2cccc3oc(Cc4cccc(C(F)(F)F)c4)cc23)c1
144 | O=C(O)Cc1ccc(C(=O)c2ccccc2)s1
55 to 57 | CCCCCCCCCCCCn1nnc(C(C(=O)O)c2ccccc2)n1 (configuration not stated)
163 to 165 | COC(=O)c1ccccc1S(=O)(=O)N1CCC[C@H]1C(=O)N[C@@H](Cc1ccccc1)C(=O)O
202 to 203 | O=S(=O)(c1ccc(Nc2ccnc3cc(C(F)(F)F)ccc23)cc1)N1CCN(c2ccccn2)CC1
114 | CCCC/C=C/C(=O)N(C)c1ccc(S(=O)(=O)NC2CCCCCC2)cc1
33 to 35 | CCOC(CBr)(OCC)C(=NOC)C(=O)Cl
100 to 102 | COc1ccc(C2=NNC(=O)CC2c2ccncc2)cc1 (configuration not stated)

melting point [°C] | SMILES
70 to 71 | CSc1ccc(C(=O)CBr)cc1F
86 to 88 | COCc1oc(-c2nn(Cc3ccccc3F)c3ccccc23)nc1C
171 to 174 | CC(C)(C)c1cc(C=Nn2ccnc2)cc(C(C)(C)C)c1O
80 | CC(C)(C)OC(=O)c1ccc(OCCNC(=O)C2Cc3ccccc3N2S(=O)(=O)c2ccc(-c3ccc(F)cc3F)cc2)cc1 (configuration not stated)
210 to 211 | COc1ccc(-c2cc3cc(F)c(F)cc3[nH]2)cc1N
72 to 74 | CC(C)(C)c1ccc(CN(CCOc2cccc(N)c2N)C(=O)C(F)(F)F)cc1
125 to 128 | CC(C)CC(=O)NC(=O)c1nnn(Cc2ccccc2)c1NC(=O)CC(C)C
250 to 251 | Cc1ccc(-c2cc3c(s2)CCCC(C(=O)O)=C3)cc1
197 to 200 | NCc1cn(C2CCc3ccccc3C2)c(=S)[nH]1 (configuration not stated)
104 to 105 | COc1cc(CC(N)=O)cc(OC(F)F)c1OC
160 to 161 | COCCOc1ccc(COC(=O)NS(=O)(=O)NCC(C)C)c(Oc2ncc(C(F)(F)F)cc2Cl)c1
52 to 54 | CN(CCC(O)c1ccc(Cl)cc1)Cc1ccccc1F (configuration not stated)
192 to 194 | COc1cc2ncnc(Nc3cccc(Cl)c3F)c2cc1OC1CCN(C(=O)OC(C)(C)C)CC1
107 to 109 | CCN(C(=O)c1ccc(Cl)c(Cl)c1)c1ccc(C)cc1CCC(=O)O
185 | NS(=O)(=O)c1ccc(NC(=O)CNc2ccc(Cl)cc2)c(Cl)c1
75 to 79 | COC(=O)CN(C)C(=O)CC(Cc1cccc2ccccc12)C(=O)NC(Cc1c[nH]cn1)C(=O)NC(CC(C)C)C(O)C(=O)OC (mixture of isomers)
293 to 294 | O=C(O)c1ccc2oc3ncccc3c(=O)c2c1
270 to 271 | O=C(Nc1cccnn1)N1CCN(c2nccc(-c3cc(F)cc(F)c3)n2)CC1
179 to 181 | O=C(O)c1ccccc1Sc1ccc([N+](=O)[O-])cc1[N+](=O)[O-]
131 to 134 | COc1cc(O)c2c(c1)CC(C(=O)Nc1ccc(CC3SC(=O)NC3=O)cc1)SCC2=O (configuration not stated)
309 to 311 | O=c1[nH]c2c(Cl)cc(Cl)cc2c2nc(-c3ccccc3)nn12

SMILES | melting point [°C]
CN1Cc2c(Br)ncn2-c2ccc(F)cc2C1=O | 200
CCCCSc1c[nH]nc1C1CN2CCC1CC2 (configuration not stated) | 162 to 164
CCOC[C@@H]1[C@H](c2ccc(Cl)c(Cl)c2)C[C@H]2CC[C@@H]1N2C | 52.5 to 54.5
CCC1CC2C3CCC4=CC(=O)CCC4(CSC)C3CCC2(C)C1=O (configuration not stated) | 83
COc1cc(NC(=O)C2C(=O)N(C)C(=O)N(C)C2=O)ccc1Oc1nnc(C(C)(C)C)s1 | 178 to 179
Cc1nc2cc(NC(=O)c3cc4cc(F)ncc4n3Cc3cccc(F)c3)ccc2s1 | 193 to 195
O=C(C(CCO)N1CCCC1=O)N1CCOCC1 (configuration not stated) | 105 to 106
